One may read the melting point as the temperature, or range, at which the solid turns liquid.

In turn, `Cc1c(NC(=O)c2ccc(OC[C@@H]3CCCO3)cc2)ccc2c1cc(CN1CCC(C)(O)CC1)n2C` came in with a melting point of 210 °C. In the case of `CN(C)C(=O)NS(=O)(=O)C=Cc1ccccc1` it was 160 to 162 °C; in that of `CCOC(=O)c1c2ccc(Cl)cc2c(-c2ccccc2)n1CC(=O)N(CC)CC`, 118 to 120 °C.

For the molecule `COc1ccc2[nH]c(C(=O)N3CC(CCl)c4c3cc(O)c3ncccc43)cc2c1` (centres undefined), the melting point lay within 224 to 227 °C. The figure for `N#Cc1ccc(Cn2cc(C=CC=O)nn2)cc1` is 152 to 155 °C; for `COC(=O)CC(CNC(C)=O)c1cccc2ccc(OC)cc12` (centres undefined) it is 94 to 95 °C. `CC12CCC(=O)NC1=CCc1ccccc12` (centres undefined) came in with a melting point of 123 to 124 °C. The molecule `CC1C(C)(C)c2ccc(C(=O)CCC(=O)O)cc2C1(C)C` (centres undefined) had a melting point of 161 °C.

As to `O=CNNc1ccc(NS(=O)(=O)c2cccc([N+](=O)[O-])c2)cc1`, the melting point lay within 188 to 191 °C. The figure for `CC(C)(C)c1ccccc1N1CCN(C(=O)C2CCC(=O)N2)CC1` (centres undefined) is 290 °C; for `O=C(Nc1nc(-c2ccco2)c(C(=O)C2CCOCC2)s1)c1ccc(Cl)nc1` it is 233 to 235 °C.

On to `CON(C)Cc1nc2c(N)nc3ccccc3c2n1CC1CCOCC1`, for which the melting point is 223 to 226 °C. In the case of `COc1cc(C(=O)O)cc(OC)c1OC(C)=O` it was 181 to 183 °C; in that of `NC1=NS(=O)N=C1NCCCN(Cc1ccccn1)c1ccccn1` (centres undefined), 192 to 193 °C. The molecule `C=CCc1cc(Cc2cnc(N)nc2N)c2cccnc2c1OCCOC` displayed a melting point of 196 to 200 °C. In the case of `Brc1ccc(-c2cnc(COCc3cc4ccccc4o3)o2)cc1` it was 80 to 82 °C. In the case of `CCCCn1nc(C=O)nc1Cc1ccc(-c2ccccc2-c2nnn[nH]2)nc1` it was 167 to 168 °C; in that of `CCCCCC(CC(=O)Nc1cc(C(N)=O)ccc1C(C)(C)C)c1ccc(C(=O)O)cc1OC` (centres undefined), 204 to 206 °C; in that of `CC(C)(C)OC(=O)N[C@@H](C(=O)N1CCC[C@H]1C(=O)NCC1CCc2nc(N)ncc2C1)C(c1ccccc1)c1ccccc1` (some centres undefined), 127 to 130 °C.

`COC(=O)CN1C(=O)C2=C(c3ccc(Cl)cc3C(c3ccccc3Cl)=NC2)C1C` (centres undefined): the melting point was in the range of 221 to 223 °C. The figure for `CC(=O)SCC(Cc1ccccc1)C(=O)Nc1ccc(C(=O)O)cc1` (centres undefined) is 187 to 189 °C; for `C=CCOCc1ccc([N+](=O)[O-])cc1Nc1nccc(-c2cccnc2)n1` it is 213 to 215 °C. In the case of `COc1cccc(NC(=O)C23CC4CC(CC(C4)C2)C3)c1` it was 172 to 174 °C.

For `N#CCSC(C(=O)O)c1ccccc1` (centres undefined), the melting point lay within 110 to 112 °C.

Take `COc1cc(NC(NC2CCC2)=C(C#N)S(=O)(=O)c2ccc(Cl)cc2)cc(OC)c1`: the melting point worked out at 164 °C. In the case of `CCOC(C)n1c(C)nc(-c2ccccc2)c1-c1ccccc1` (centres undefined) it was 87 to 89 °C; in that of `COc1cc(OC)c2ccccc2c1O`, 87 to 88 °C; in that of `Cc1ccc(NCCCNc2ncc(Cc3ccc(C)nc3)c(=O)[nH]2)nc1`, 164 to 166 °C.

For `CCOC(=O)N1CCc2nc3c(O)c(Br)cc(Br)c3c(C)c2CC1`, the melting point was 179 °C.

`COC(=O)CC1=C(C)C(=Cc2ccc(S(=O)(=O)NC(C)=O)cc2)c2ccc(OC)cc21`: the melting point fell in the range of 172 to 174 °C. `[N-]=[N+]=NC1CC(n2cnc3c(N4CCCC4)nc(N)nc32)OC1CO` (centres undefined): the melting point fell in the range of 180 to 183 °C. As for `CC(C)(C)NCC(O)COc1cc(N)ccc1-c1ccc(=O)[nH]n1` (centres undefined), the melting point was 198 to 202 °C. In the case of `COc1ccc(C2(Oc3c(F)c(F)c(F)c(F)c3F)CCN(C)CC2)cc1` it was 70 to 80 °C; in that of `CNCCCN1CCc2cc(OC)c(OC)cc2CC1=O`, 68 to 70 °C; in that of `Oc1cccc(N2CCCC2)n1`, 154 to 158 °C. The figure for `O=C(NNC1=NS(=O)(=O)c2ccccc21)c1ccncc1` is 288 to 289 °C; for `COc1cc2c(cc1OC)C1=NNC(c3ccc(Cl)cc3)C1CCC2` (centres undefined) it is 160 to 163 °C. The figure for `Cc1cc(NC(=O)Nc2ccc(N(CCCl)CCCl)cc2)c2ccccc2n1` is 128 to 129 °C; for `COC(=O)C1=Cc2cc(-c3ccc(N4CCOCC4)cc3)ccc2N(C(=O)OC)CC1` it is 216 to 220 °C. `N#CCC(C#N)=NNc1c(Cl)cc(C(F)(F)F)cc1Cl` had a melting point of 80 to 82 °C. For `O=C(O)/C=C/c1cccc(OCCC(c2ccccc2)(c2ccccc2)c2ccccc2)c1`, the melting point fell in the range of 104 to 109 °C.

`CCCc1nc2cc([N+](=O)[O-])ccc2n1Cc1ccc(C(=O)OCC)cc1` showed a melting point of 136 to 138 °C. In the case of `CCCCCCCCCCCC(=O)c1ccc(-c2ccc(OC)c(F)c2)cc1`, the melting point lay within 124 to 125 °C. In the case of `CC(=O)N1CCc2c(sc(CCN3CCC(c4noc5cc(F)ccc45)CC3)c2Br)C1` it was 114 to 117 °C; in that of `Nc1c(I)cc(Cl)cc1[N+](=O)[O-]`, 134 to 135 °C. The figure for `COc1ccc(N2CCN(Cc3n[nH]c4ccccc34)CC2)cc1` is 167 to 168 °C; for `Oc1ccccc1Cc1ccc2ccccc2c1O` it is 124 to 125 °C.

Regarding `COc1ccc2c(c1)OCC(C(=O)O)O2` (centres undefined), the melting point lay within 120 to 121 °C.

Consider `Cc1cc(SCCc2cccc3sc(-c4ccc(C(F)(F)F)cc4)nc23)ccc1OCC(=O)O`, for which the melting point is 97 to 100 °C.

`CN(C(=O)OC(C)(C)C)c1cc(Sc2cc(C(C)(C)C)c(O)c(C(C)(C)C)c2)ccc1N` gave a melting point of 95 to 96 °C. The figure for `CCN(CC)c1ccc(NC(=O)N(C[C@@H]2CCC[C@H](CN(C(=O)Nc3ccc(N(CC)CC)cc3)C3CCCCC3)C2)C2CCCCC2)cc1` is 170 to 172 °C. The figure for `CCCOc1ccccc1C(=O)CCC(=O)O` is 77 to 79 °C. In the case of `CC(=O)NC(C)c1ccc(CN2CCN(c3nccs3)CC2)cc1` (centres undefined) it was 136 to 137 °C. `CC12CCC(=O)C=C1CCC1C2=CCC2(C)C1CCC2(O)C#N` (centres undefined) showed a melting point of 225 to 228 °C. In the case of `Nc1nc(N)nc(-c2ccc(NS(=O)(=O)c3ccccc3)cc2)n1` it was 197 to 199 °C; in that of `Cc1ccc(N2CCN(Cc3ccc4ccc(=O)oc4c3)CC2)cc1`, 154 to 155 °C; in that of `COc1cc(Nc2c(C#N)cnc3cc(/C=C/CCN(C)C)c(OC)cc23)c(Cl)cc1Cl`, 119 to 121 °C. The figure for `CCOC(=O)c1c(Cl)nn(C)c1S(=O)(=O)NC(=O)Nc1nc(OC)cc(OC)n1` is 169 to 170 °C; for `COC(=O)CCC(=O)c1ccc2c(c1)CC(CCCCNC(C)=O)C2` (centres undefined) it is 94 to 95 °C; for `C[C@H]1COS(=O)(=O)N1C(=O)OC(C)(C)C` it is 121 to 122 °C. In the case of `O=c1cc(OCC2CCCCC2)cc[nH]1` it was 256 to 260 °C. The molecule `Cc1cc(-c2cnn3c(O)ncnc23)ccc1S(C)=O` (centres undefined) displayed a melting point of 281 to 282 °C. In the case of `Fc1ccc(-c2cn(CCC#Cc3ccccn3)nn2)cc1` it was 120 to 122 °C; in that of `Cc1ccccc1Cc1ccc(-c2cnn3c(O)ncnc23)cc1`, 274 to 279 °C.
